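Tested at 5 concentrations; 48 h exposure; 96-well plates; endpoints linearly interpolated, else capped at highest concentration. GI50 is the concentration that inhibits growth by half.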 Activity calls are given as the source filed them. Rule as the data show it: active = GI50 up to about 1.1 µM and inactive = higher.
Tests used:
Experiment in all cases: DTP human tumour cell line panel, 48 h
[1] = tested on: 786-0
[2] = tested on: A498
[3] = tested on: A549
[4] = tested on: ACHN
[5] = tested on: BT-549
[6] = tested on: CAKI-1
[7] = tested on: CCRF-CEM
[8] = tested on: COLO 205
[9] = tested on: DU-145
[10] = tested on: EKVX
[11] = tested on: HCC 2998
[12] = tested on: HCT-116
[13] = tested on: HCT-15
[14] = tested on: HL-60
[15] = tested on: HOP-62
[16] = tested on: HOP-92
[17] = tested on: HT-29
[18] = tested on: Hs-578T
[19] = tested on: IGROV-1
[20] = tested on: K562
[21] = tested on: KM12
[22] = tested on: LOX IMVI
[23] = tested on: M14
[24] = tested on: MCF7
[25] = tested on: MDA-MB-231
[26] = tested on: MDA-MB-435
[27] = tested on: MDA-N
[28] = tested on: MOLT-4
[29] = tested on: Malme-3M
[30] = tested on: NCI-H226
[31] = tested on: NCI-H460
[32] = tested on: NCI-H522
[33] = tested on: NCI/ADR-RES
[34] = tested on: OVCAR-3
[35] = tested on: OVCAR-4
[36] = tested on: OVCAR-5
[37] = tested on: OVCAR-8
[38] = tested on: PC-3
[39] = tested on: RXF 393
[40] = tested on: SF-268
[41] = tested on: SF-295
[42] = tested on: SF-539
[43] = tested on: SK-MEL-28
[44] = tested on: SK-MEL-2
[45] = tested on: SK-MEL-5
[46] = tested on: SN12C
[47] = tested on: SNB-19
[48] = tested on: SNB-75
[49] = tested on: SR
[50] = tested on: SW-620
[51] = tested on: T47D
[52] = tested on: U-251
[53] = tested on: UACC-257
[54] = tested on: UO-31
[55] = tested on: NCI-H23
[56] = tested on: RPMI-8226
[57] = tested on: SK-OV-3
[58] = tested on: TK-10
[59] = tested on: UACC-62

Measured: GI50

COc1cc(C2CC(C)(N3CCCC3)Oc3cc4c(cc32)OCO4)cc(OC)c1OC (configuration not stated)
0.12 µM: [13]
active: [1] 0.383 µM | [2] 0.578 µM | [3] 0.462 µM | [4] 0.69 µM | [5] 0.794 µM | [6] 0.527 µM | [7] 0.184 µM | [9] 0.42 µM | [10] 0.456 µM | [11] 0.618 µM | [12] 0.299 µM | [14] 0.13 µM | [15] 0.335 µM | [17] 0.165 µM | [18] 0.259 µM | [19] 0.31 µM | [20] 0.0371 µM | [21] 0.182 µM | [22] 0.426 µM | [23] 0.394 µM | [24] 0.0925 µM | [25] 0.145 µM | [26] 0.0211 µM | [27] 0.0275 µM | [28] 0.21 µM | [29] 0.21 µM | [31] 0.288 µM | [32] 0.2 µM | [33] 0.582 µM | [34] 0.129 µM | [37] 0.524 µM | [38] 0.0889 µM | [39] 0.0908 µM | [40] 0.745 µM | [41] 0.0762 µM | [42] 0.215 µM | [43] 0.569 µM | [44] 0.408 µM | [45] 0.124 µM | [46] 0.288 µM | [47] 0.277 µM | [48] 0.0865 µM | [49] 0.488 µM | [50] 0.167 µM | [52] 0.279 µM | [53] 0.13 µM | [54] 0.624 µM
inactive: [8] 2.9 µM | [16] 62.1 µM | [30] 4.69 µM | [35] 19.5 µM | [36] > 100 µM | [51] 5.55 µM

CNn1c(-c2ccccc2)n[nH]c1=O
inactive: [1] > 100 µM | [2] > 100 µM | [3] > 100 µM | [4] > 100 µM | [5] > 100 µM | [6] > 100 µM | [7] > 100 µM | [8] > 100 µM | [9] > 100 µM | [10] > 100 µM | [11] > 100 µM | [12] > 100 µM | [14] > 100 µM | [15] > 100 µM | [16] > 100 µM | [17] > 100 µM | [18] > 100 µM | [19] > 100 µM | [20] > 100 µM | [21] > 100 µM | [22] > 100 µM | [23] > 100 µM | [24] > 100 µM | [25] > 100 µM | [26] > 100 µM | [27] > 100 µM | [28] > 100 µM | [29] > 100 µM | [30] > 100 µM | [55] > 100 µM | [31] > 100 µM | [32] > 100 µM | [33] > 100 µM | [34] > 100 µM | [35] > 100 µM | [36] > 100 µM | [37] > 100 µM | [38] > 100 µM | [56] > 100 µM | [40] > 100 µM | [41] > 100 µM | [42] > 100 µM | [43] > 100 µM | [44] > 100 µM | [45] > 100 µM | [57] > 100 µM | [46] > 100 µM | [47] > 100 µM | [48] > 100 µM | [49] > 100 µM | [50] > 100 µM | [51] > 100 µM | [58] > 100 µM | [52] > 100 µM | [53] > 100 µM | [59] > 100 µM | [54] > 100 µM
> 100 µM: [13]

— ChEMBL document CHEMBL1201862, “PubChem BioAssay data set” (2004)
